Assays:
[1] = system: ILC2 population in human PBMC; test: ILC2 cell population in human PBMC culture (flow cytometry); type: cell-based; parameters: key: −: no inhibition; +: weak; ++: moderate; +++: strong inhibition; conditions: IL-2 (10 unit/mL) and three alarmins (10 ng/ml), 5 days
Source text: (§1) While alarmins are known to work in concert to enhance ILC2 and Th2 cell functions such as increase in cell population, steroids such as Dexamethasone (Dex) can negate these effects, resulting in the mitigation of type 2 immune responses [Jia, Yi et al. American Journal Of Respiratory Cell And Molecular Biology, vol. 55, 5 (2016): 675-683]. ILC2 and Th2 cell population can be determined by flow cytometry (BD FACSVerse) following standard procedures known to those skilled in the art.

[2] = system: Th2 cell population in human PBMC; test: Th2 cell population in human PBMC culture (flow cytometry); type: cell-based; parameters: key: −: no inhibition; +: weak; ++: moderate; +++: strong inhibition; conditions: IL-2 (10 unit/mL) and three alarmins (10 ng/ml), 5 days
Source text: as §1

IL-33 = target: T1, IL-33 (Homo sapiens, UniProt O95760); test: Bio-Layer Interferometry (Octet), binding kinetics of bsBp to human IL-33
T1 construct: purchased R&D systems
T1 sequence (O95760 95-270): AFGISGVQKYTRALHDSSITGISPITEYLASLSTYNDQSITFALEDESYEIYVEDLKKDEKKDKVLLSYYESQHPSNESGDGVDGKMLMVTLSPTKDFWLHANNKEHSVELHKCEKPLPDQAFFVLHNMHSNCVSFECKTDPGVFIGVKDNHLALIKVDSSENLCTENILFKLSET
Protocol: The binding affinity of bsBp to the targeted alarmins was determined using a bio-Layer Interferometry analysis (Octet ReD96 system, Sartorius). bsBp or SM17 (20 μg/mL) was immobilized on biosensors via binding to anti-human Fab CH1 region; serially diluted human IL33 and TSLP (158.7 nM, 79.4 nM, 39.7 nM) (R&D systems) were added to plot the association and dissociation curve according to the manufacturer's specification. Biosensors immobilized with irrelevant antibody (SM03, anti-human CD22 chimeric IgG1 antibody, SinoMab BioScience Limited, 20 μg/mL) were used as control reference.

wild type HEK293 = test: Flow cytometry, SM17 binding to wild type HEK293; conditions: SM17 1 μg/ml
Protocol: HEK293 cells (ATCC, Manassas, VA) transfected either with full-length human or rhesus monkey IL-17RB (SinoBiological, Beijing, China) were examined for binding to SM17 following standard protocol for flow cytometry. Wild-type HEK293 stained with IgG4 isotype control (Sino Biological) was used as the negative control and for gating purpose. Briefly, HEK293 cells at a density of 3×10^5 cells were seeded into each well of a 6-well plate. On the next day, human or rhesus Il-17RB full length cDNA were first cloned into pCMV3-untagged expression plasmid through standard molecular cloning technique, and then expression plasmids for human or rhesus IL-17RB were transfected into HEK293 cells by lipofection (Lipofectamine 3000 reagent; Thermo Fisher Scientific). Transfected cells were trypsinized, harvested, and fixed with 4% paraformaldehyde (5 minutes). SM17, or human IgG4 control at 1 μg/ml in washing buffer (3% BSA in PBS) were added to the resuspend cells for incubation at RT for 30 min before Alexa Fluor® 647-conjugated goat anti-human IgG specific antibody (1:2000 dilution in washing buffer) (Jackson ImmunoResearch) was added for flow cytometry analysis using the BD FACSVerse cell analyzer (Becton Dickenson, Franklin Lakes, NJ).

Kd (IL-33): 659 µM
Kdis (IL-33): 17.9 s⁻¹
Ka (IL-33; bsBp or SM17 immobilized at 20 μg/mL): 27200 M⁻¹ s⁻¹
binding of SM17 to wild type HEK293 (wild type HEK293): ~7%
Substance: SM17: humanized anti-IL17RB monoclonal antibody, human IgG4 isotype; HC SEQ ID NO: 32, LC SEQ ID NO: 33
Cell proliferation inhibition, ILC2 [1]: ++
Cell proliferation inhibition, Th2 [2]: +++
